Measurements: ChEMBL document CHEMBL1150976, “The selectivity of protein kinase inhibitors: a further update” (Biochem J, 2007)

What was measured:
[1] = target: Mitogen-activated protein kinase 9 (Homo sapiens, UniProt P45984); experiment: Percentage JNK2 activity remaining in the presence of 3uM inhibitor
[2] = target: T1, Mitogen-activated protein kinase 15 (Homo sapiens) (UniProt Q8TD08); experiment: Percentage ERK8 activity remaining in the presence of 3uM inhibitor
T1 sequence (whole entry): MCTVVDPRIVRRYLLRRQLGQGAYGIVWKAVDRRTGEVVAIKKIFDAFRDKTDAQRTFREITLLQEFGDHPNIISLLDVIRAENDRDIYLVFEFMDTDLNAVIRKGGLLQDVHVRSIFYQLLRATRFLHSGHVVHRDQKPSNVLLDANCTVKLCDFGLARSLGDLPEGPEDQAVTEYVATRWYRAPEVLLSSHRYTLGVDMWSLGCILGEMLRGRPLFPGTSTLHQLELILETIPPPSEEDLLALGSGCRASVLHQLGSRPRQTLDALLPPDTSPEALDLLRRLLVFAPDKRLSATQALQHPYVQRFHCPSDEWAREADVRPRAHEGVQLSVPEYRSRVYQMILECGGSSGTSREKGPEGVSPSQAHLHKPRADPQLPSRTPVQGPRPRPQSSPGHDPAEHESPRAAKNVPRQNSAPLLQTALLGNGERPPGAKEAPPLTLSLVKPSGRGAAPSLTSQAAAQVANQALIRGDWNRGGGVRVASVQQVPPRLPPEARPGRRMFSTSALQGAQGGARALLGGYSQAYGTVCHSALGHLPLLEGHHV

[3] = target: Serine/threonine-protein kinase N2 (Homo sapiens) (UniProt Q16513); experiment: Percentage PRK2 activity remaining in the presence of 3uM inhibitor
[4] = target: T2, Serine/threonine-protein kinase BRSK2 (Homo sapiens) (UniProt Q8IWQ3); experiment: Percentage BRSK2 activity remaining in the presence of 3uM inhibitor
T2 sequence (whole entry): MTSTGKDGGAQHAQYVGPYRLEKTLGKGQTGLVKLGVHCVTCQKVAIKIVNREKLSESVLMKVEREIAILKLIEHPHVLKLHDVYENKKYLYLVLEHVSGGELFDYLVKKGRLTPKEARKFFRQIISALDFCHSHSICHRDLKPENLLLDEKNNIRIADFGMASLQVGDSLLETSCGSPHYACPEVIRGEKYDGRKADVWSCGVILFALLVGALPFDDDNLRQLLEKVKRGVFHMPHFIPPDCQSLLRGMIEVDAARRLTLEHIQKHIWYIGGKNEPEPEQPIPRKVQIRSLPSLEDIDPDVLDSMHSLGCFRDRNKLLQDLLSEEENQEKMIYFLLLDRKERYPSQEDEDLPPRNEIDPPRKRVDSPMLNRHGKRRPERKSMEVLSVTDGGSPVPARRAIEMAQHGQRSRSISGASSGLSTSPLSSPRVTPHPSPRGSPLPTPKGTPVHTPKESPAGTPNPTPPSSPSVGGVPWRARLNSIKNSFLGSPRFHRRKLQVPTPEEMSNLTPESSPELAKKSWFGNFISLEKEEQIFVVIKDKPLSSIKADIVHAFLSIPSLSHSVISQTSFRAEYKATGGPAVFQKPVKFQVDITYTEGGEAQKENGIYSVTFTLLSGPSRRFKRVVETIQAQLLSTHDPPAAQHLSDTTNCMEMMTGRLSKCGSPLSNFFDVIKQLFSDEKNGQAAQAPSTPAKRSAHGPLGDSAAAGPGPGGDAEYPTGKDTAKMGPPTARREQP

[5] = target: Ribosomal protein S6 kinase beta-1 (Homo sapiens, UniProt P23443); experiment: Inhibition of S6K1 in the presence of 20uM ATP
[6] = target: Proto-oncogene tyrosine-protein kinase Src (Gallus gallus) (UniProt P00523); experiment: Percentage Src activity remaining in the presence of 3uM inhibitor; conditions: filed as antagonist
[7] = target: T3, Inhibitor of nuclear factor kappa-B kinase subunit beta (Homo sapiens) (UniProt O14920); experiment: Percentage IKK-beta activity remaining in the presence of 2uM inhibitor
T3 sequence (whole entry): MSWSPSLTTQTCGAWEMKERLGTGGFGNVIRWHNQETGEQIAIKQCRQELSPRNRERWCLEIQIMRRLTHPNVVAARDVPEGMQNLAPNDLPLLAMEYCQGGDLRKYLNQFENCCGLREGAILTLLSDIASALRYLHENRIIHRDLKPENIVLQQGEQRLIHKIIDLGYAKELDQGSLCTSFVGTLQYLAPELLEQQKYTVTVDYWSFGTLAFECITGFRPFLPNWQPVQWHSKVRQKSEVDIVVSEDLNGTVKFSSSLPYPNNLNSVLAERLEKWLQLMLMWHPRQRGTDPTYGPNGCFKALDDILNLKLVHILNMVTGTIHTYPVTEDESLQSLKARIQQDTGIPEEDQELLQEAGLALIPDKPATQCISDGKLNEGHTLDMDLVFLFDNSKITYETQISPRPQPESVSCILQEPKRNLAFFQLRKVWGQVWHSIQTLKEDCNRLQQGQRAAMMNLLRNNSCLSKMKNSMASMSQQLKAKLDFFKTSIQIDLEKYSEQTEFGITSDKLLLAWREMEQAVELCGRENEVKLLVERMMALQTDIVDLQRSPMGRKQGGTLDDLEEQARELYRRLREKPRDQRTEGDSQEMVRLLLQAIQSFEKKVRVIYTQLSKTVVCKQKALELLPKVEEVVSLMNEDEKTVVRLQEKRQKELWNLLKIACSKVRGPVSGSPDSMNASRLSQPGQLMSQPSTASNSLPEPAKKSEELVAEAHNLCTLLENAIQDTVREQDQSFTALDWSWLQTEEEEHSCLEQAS

[8] = target: MAP kinase-interacting serine/threonine-protein kinase 2 (Homo sapiens) (UniProt Q9HBH9); experiment: Percentage MNK2 activity remaining in the presence of 2uM inhibitor
[9] = target: Proto-oncogene tyrosine-protein kinase Src (Gallus gallus) (UniProt P00523); experiment: Percentage Src activity remaining in the presence of 2uM inhibitor
[10] = target: Protein kinase C alpha type (Homo sapiens) (UniProt P17252); experiment: Percentage PKCalpha activity remaining in the presence of 2uM inhibitor
[11] = target: Serine/threonine-protein kinase PAK 5 (Homo sapiens) (UniProt Q9P286); experiment: Percentage PAK5 activity remaining in the presence of 2uM inhibitor
[12] = target: Maternal embryonic leucine zipper kinase (Homo sapiens) (UniProt Q14680); experiment: Percentage MELK activity remaining in the presence of 2uM inhibitor
Maternal embryonic leucine zipper kinase (Homo sapiens), sequence (Q14680 whole entry, looked up): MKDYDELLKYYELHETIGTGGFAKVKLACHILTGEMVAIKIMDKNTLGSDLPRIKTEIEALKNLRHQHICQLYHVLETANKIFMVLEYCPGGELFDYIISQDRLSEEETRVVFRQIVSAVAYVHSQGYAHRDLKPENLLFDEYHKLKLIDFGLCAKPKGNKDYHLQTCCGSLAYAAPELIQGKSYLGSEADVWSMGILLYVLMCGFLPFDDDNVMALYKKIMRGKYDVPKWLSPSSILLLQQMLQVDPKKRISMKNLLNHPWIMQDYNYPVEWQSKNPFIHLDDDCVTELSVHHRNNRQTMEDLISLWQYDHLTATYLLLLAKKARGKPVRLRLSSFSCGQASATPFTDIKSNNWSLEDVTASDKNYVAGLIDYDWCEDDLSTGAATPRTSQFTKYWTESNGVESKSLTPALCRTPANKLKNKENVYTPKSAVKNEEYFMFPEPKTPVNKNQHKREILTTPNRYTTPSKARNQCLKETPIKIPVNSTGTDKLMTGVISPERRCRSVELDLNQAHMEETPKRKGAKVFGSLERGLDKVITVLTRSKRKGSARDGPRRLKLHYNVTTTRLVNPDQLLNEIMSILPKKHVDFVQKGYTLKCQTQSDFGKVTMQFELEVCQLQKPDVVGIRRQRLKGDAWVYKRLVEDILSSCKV

Serine/threonine-protein kinase PAK 5 (Homo sapiens), sequence (Q9P286 whole entry, looked up): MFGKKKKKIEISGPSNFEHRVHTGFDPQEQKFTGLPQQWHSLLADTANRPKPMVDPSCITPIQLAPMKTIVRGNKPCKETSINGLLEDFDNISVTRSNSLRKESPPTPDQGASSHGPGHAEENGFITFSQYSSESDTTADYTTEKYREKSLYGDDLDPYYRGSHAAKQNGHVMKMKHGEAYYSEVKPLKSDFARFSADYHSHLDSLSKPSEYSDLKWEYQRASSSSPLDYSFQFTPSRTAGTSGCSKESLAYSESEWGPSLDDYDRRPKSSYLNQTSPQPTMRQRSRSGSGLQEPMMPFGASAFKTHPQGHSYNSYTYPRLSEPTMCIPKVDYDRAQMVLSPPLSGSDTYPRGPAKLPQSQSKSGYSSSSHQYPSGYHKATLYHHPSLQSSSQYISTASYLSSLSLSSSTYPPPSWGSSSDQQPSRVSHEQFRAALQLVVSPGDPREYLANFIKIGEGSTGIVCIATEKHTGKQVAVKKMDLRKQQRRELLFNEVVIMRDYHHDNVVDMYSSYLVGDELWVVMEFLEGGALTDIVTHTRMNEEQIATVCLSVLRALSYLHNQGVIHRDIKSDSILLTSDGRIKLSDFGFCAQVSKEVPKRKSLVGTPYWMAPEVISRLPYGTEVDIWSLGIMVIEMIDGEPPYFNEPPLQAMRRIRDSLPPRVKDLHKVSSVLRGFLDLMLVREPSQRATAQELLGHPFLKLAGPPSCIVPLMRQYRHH
Ribosomal protein S6 kinase beta-1, sequence (P23443 whole entry): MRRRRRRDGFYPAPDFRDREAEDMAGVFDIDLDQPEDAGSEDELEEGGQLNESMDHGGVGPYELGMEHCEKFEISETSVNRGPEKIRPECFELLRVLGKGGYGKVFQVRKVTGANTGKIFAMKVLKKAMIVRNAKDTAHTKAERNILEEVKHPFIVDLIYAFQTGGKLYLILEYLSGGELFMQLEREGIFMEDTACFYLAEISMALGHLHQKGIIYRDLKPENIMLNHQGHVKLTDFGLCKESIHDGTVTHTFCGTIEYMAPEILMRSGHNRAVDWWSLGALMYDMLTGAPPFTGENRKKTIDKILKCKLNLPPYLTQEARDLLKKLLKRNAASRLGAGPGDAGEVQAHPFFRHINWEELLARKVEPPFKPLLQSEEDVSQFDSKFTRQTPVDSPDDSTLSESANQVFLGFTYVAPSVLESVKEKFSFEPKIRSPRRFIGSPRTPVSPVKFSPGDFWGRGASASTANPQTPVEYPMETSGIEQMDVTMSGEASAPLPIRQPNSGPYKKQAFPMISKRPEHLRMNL
Mitogen-activated protein kinase 9, sequence (P45984 whole entry, looked up): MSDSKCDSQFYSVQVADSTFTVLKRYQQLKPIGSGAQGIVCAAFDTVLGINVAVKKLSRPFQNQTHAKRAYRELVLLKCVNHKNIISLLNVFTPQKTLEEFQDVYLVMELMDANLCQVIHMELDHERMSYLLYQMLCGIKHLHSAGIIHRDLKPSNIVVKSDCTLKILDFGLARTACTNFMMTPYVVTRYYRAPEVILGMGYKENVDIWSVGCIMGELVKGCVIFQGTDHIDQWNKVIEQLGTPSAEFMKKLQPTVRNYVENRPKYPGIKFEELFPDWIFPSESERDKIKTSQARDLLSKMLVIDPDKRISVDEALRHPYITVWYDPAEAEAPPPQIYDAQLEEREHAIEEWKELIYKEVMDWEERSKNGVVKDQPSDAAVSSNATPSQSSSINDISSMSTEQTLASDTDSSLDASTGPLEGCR
Serine/threonine-protein kinase N2 (Homo sapiens), sequence (Q16513 whole entry, looked up): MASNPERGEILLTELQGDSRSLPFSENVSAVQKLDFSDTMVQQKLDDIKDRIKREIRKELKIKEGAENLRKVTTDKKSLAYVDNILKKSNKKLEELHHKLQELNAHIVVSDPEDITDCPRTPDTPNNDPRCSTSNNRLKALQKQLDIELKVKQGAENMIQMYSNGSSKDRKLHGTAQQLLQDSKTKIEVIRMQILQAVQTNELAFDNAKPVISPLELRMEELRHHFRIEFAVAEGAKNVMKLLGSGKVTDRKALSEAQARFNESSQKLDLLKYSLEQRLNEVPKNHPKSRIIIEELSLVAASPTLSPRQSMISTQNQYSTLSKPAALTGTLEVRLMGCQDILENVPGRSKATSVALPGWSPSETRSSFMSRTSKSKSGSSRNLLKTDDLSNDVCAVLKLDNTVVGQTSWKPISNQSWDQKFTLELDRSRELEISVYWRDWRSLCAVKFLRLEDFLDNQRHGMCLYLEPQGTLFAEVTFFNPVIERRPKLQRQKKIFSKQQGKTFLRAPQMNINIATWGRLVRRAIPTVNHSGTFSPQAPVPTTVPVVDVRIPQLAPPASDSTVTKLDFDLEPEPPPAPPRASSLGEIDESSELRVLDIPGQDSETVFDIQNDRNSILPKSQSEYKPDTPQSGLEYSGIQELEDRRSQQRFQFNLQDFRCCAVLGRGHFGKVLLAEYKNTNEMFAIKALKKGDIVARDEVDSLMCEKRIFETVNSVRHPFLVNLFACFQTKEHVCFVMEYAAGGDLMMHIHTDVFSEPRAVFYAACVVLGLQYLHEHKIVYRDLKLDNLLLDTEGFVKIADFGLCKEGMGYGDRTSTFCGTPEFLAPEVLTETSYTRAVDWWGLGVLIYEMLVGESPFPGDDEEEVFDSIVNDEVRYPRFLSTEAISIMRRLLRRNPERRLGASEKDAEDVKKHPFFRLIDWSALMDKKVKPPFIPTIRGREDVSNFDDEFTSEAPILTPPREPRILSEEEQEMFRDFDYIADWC
MAP kinase-interacting serine/threonine-protein kinase 2 (Homo sapiens), sequence (Q9HBH9 whole entry, looked up): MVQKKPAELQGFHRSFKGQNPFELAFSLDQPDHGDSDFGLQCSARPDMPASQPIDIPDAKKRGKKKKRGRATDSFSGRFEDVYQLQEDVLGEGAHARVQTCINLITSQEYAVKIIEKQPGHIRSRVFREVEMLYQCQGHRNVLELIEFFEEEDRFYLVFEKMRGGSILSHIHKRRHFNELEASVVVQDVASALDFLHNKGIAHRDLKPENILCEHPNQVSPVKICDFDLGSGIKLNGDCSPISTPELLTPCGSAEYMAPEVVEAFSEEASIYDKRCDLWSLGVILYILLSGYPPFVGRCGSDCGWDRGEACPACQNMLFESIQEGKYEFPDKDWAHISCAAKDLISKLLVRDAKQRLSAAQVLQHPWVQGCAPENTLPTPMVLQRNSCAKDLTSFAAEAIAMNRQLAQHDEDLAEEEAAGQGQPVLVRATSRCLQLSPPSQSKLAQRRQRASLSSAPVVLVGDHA

| SMILES | Activity [1] | Activity [2] | Activity [3] | Activity [4] | IC50 [5] | Activity [6] | Activity [7] | Activity [8] | Activity [9] | Activity [10] | Activity [11] | Activity [12] |
| --- | --- | --- | --- | --- | --- | --- | --- | --- | --- | --- | --- | --- |
| Cc1ccc(-c2c(C(=O)CF)n(CCCO)c3ncnc(N)c23)cc1 | 83% | 58% | 83% | 53% | 950 nM (antagonist) | 10% |  |  |  |  |  |  |
| Cn1cc(C2=C(c3ccc(Cl)cc3Cl)C(=O)NC2=O)c2ccccc21 |  |  |  |  |  |  | 99% | 94% | 83% | 73% | 85% | 78% |
